# Data reported in patent publication US5852011A, “Benzimidazole derivatives” (Mitsui Chemicals, Inc., priority 1994, dated 1998).
# Counter-ions that a name gives are not always drawn.
# What was measured:
# [1] = system: A(adenine)-T(thymine) DNA copolymer; experiment: Change in Tm (melting temperature) of DNA copolymer on addition of compound (Test 1); format: binding; details: for ΔTm: difference between Tm with and without compound, citrated buffer
# Protocol: To investigate bonding of these compounds with DNA, changes in Tm (melting temperature) were measured. With respect of each of these compounds, the measurement was conducted by determining the difference between Tm measured when a citrated buffer solution of an A(adenine)-T(thymine) DNA copolymer was added with the compound and that measured when the compound was not added. For the measurement, a spectrophotometer ("HITACHI U-3200 MODEL") was used and for temperature control, "HITACHI SPR-10 MODEL" was used.
# mouse B16 melanoma cells = experiment: In vitro inhibition of proliferation of tumored cells, mouse B16 melanoma (Test 2); format: cell-based; details: 3 days in 5% CO2 at 37° C., 96-well plate; for IC50: Mus musculus, B16, 72 h, read-out: 50% Inhibition
# Protocol: A description will next be made of antitumor activities of these compounds. Their antitumor activities were determined by measuring their in vitro inhibition of proliferation of tumored cells. Namely, mouse B16 melanoma cells were spread over a 96-well culture plate. One day later, each drug was applied. The melanoma cells were then incubated for 3 days in 5% CO2 at 37° C. Following the method reported in Cancer Res., 48, 589-601(1988), the concentration of the drug required to induce 50% inhibition on the proliferation was determined. As a comparative example, the results obtained from the application of distamycin are also shown.
# P388 leukemia cells = experiment: In vivo antitumor activity, P388 leukemia intraperitoneally transplanted to female CDF1 mice (Test 3); set-up: species or system mouse; ILS: unit not given here; details: intraperitoneal, one, five and nine days after transplantation
# Protocol: In vivo antitumor activities of these compounds were also studied. P388 leukemia cells (10^6 cells/mouse) were intraperitoneally transplanted to female CDF1 mice. One, five and nine days later, each compound was intraperitoneally administered (at 1, 3 or 10 mg/kg) to the mice. As a blank test, 5% glucose was intraperitoneally administered at 10 ml/kg to mice. Based on the group of the mice in the blank test as a control group, the effects of the individual drugs are shown in terms of ILS. The term "ILS" is represented by the following formula: [formula]
# When test animals survived 8 weeks after the administration, the number of those survived was recorded without calculation of ILS.
# [2] = system: Colon 26 mouse colon cancer cells; experiment: In vivo antitumor activity, Colon 26 subcutaneously transplanted to female CDF1 mice (Test 4); details: caudal vein, tumor weight on day 15
# Protocol: Prepared was a 1×10^7 cells/ml suspension of Colon 26 mouse colon cancer cells in HBSS (Hanks' Balanced Salt Solution). A 0.1 ml portion of the cell suspension was subcutaneously transplanted to a lateroabdominal part of each female CDF1 mouse. After the body weight of the mouse was measured on the following day of the transplantation of the tumor, a solution of a compound (5% glucose solution containing 5% of "Tween 80") was administered into the caudal vein of the mouse. On day 15, a tumor was excised and its weight was measured.
# The percentage of the average tumor weight of each experiment group as calculated by supposing that the average tumor weight of the control group not administered with any drug was 100% was calculated as a T/C value.
# Corresponding to each compound number, its T/C value is shown. The number in parentheses indicates the concentration of the drug when the T/C value was indicated.
structure (smiles),measurement,setting,value
Cn1cc(C=O)cc1-c1nc2cc(C(=O)NCCC(=N)N)ccc2[nH]1,binding to DNA indicated by Tm (in words),[1]; melting temperature of double-stranded DNA,increased Tm value
"Cn1cc(NC(=O)c2ccc(N(CCCl)CCCl)cc2)cc1-c1nc2cc(C(=O)NCCC(=N)N)ccc2[nH]1 [Compound 1, 1H-2-[4-[4-[N,N-bis(2-chloroethyl)amino]benzoylamino]-1-methylpyrrol-2-yl]benzimidazole-5-[N-(2-amidinoethyl)]carboxamide hydrochloride]",50% Inhibition,mouse B16 melanoma cells,0.23 µg/mL
same,ILS,P388 leukemia cells; 1 mg/kg,38
same,T/C,[2]; 2 mg/Kg,29%
"Cn1cc(NC(=O)CCCc2ccc(N(CCCl)CCCl)cc2)cc1-c1nc2cc(C(=O)NCCC(=N)N)ccc2[nH]1 [Compound 4, 1H-2-[4-[4-[4-[N,N-bis(2-chloroethyl)amino]phenyl]butylylamino]-1-methylpyrrol-2-yl]benzimidazole-5-[N-(2-amidinoethyl)]carboxamide hydrochloride]",ΔTm,[1],17 °C
same,50% Inhibition,mouse B16 melanoma cells,0.04 µg/mL
"Cn1cc(NC=O)cc1-c1nc2cc(C(=O)NCCC(=N)N)ccc2[nH]1 [Compound 318, 1H-2-(4-Formylamino-1-methylpyrrol-2-yl)benzimidazole-5-[N-(2-amidinoethyl)]carboxamide hydrochloride]",ΔTm,[1],7 °C
same,IC50,mouse B16 melanoma cells,19.8 mg/L
"Cn1cc(NC(=O)CNC(=N)N)cc1-c1nc2cc(C(=O)Nc3ccc(N(CCCl)CCCl)cc3)ccc2[nH]1 [Compound 1001, 1H-2-[1-Methyl-4-(2-guanidinoacetylamino)pyrrol-2-yl]benzimidazole-5-[N-[4-[N,N-bis(2-chloroethyl)amino]phenyl]]carboxamide hydrochloride]",50% Inhibition,mouse B16 melanoma cells,0.53 µg/mL
same,ILS,P388 leukemia cells; 10 mg/kg,115
same,T/C,[2]; 6 mg/Kg,7%
"Cc1cc(NC(=O)c2ccc3[nH]c(-c4cc(NC(=O)CNC(=N)N)cn4C)nc3c2)ccc1N(CCCl)CCCl [Compound 1005, 1H-2-[1-Methyl-4-(2-guanidinoacetylamino)pyrrol-2-yl]benzimidazole-5-[N-[3-methyl-4-[N,N-bis(2-chloroethyl)amino]phenyl]]carboxamide dihydrochloride]",50% Inhibition,mouse B16 melanoma cells,0.65 µg/mL
same,T/C,[2]; 15 mg/Kg,20%
"COc1cc(NC(=O)c2ccc3[nH]c(-c4cc(NC(=O)CNC(=N)N)cn4C)nc3c2)ccc1N(CCCl)CCCl [Compound 1009, 1H-2-[1-Methyl-4-(guanidinoacetylamino)pyrrol-2-yl]benzimidazole-5-[N-[3-methoxy-4-[N,N-bis(2-chloroethyl)amino]phenyl]]carboxamide dihydrochloride]",50% Inhibition,mouse B16 melanoma cells,2.31 µg/mL
same,T/C,[2]; 10 mg/Kg,29%
"Cn1cc(NC(=O)CNC(=N)N)cc1-c1nc2cc(C(=O)Nc3ccc(N(CCCl)CCCl)c(C#N)c3)ccc2[nH]1 [Compound 1013, 1H-2-[1-Methyl-4-(guanidinoacetylamino)pyrrol-2-yl]benzimidazole-5-[N-[3-cyano-4-[N,N-bis(2-chloroethyl)amino]phenyl]]carboxamide dihydrochloride]",50% Inhibition,mouse B16 melanoma cells,0.34 µg/mL
same,T/C,[2]; 3 mg/Kg,58%
"Cn1cc(NC(=O)CNC(=N)N)cc1-c1nc2cc(C(=O)Nc3ccc(N(CCCl)CCCl)c(Cl)c3)ccc2[nH]1 [Compound 1017, 1H-2-[1-Methyl-4-(guanidinoacetylamino)pyrrol-2-yl]benzimidazole-5-[N-[3-chloro-4-[N,N-bis(2-chloroethyl)amino]phenyl]]carboxamide dihydrochloride]",50% Inhibition,mouse B16 melanoma cells,0.78 µg/mL
same,T/C,[2]; 3 mg/Kg,30%
"Cc1cc(N(CCCl)CCCl)ccc1NC(=O)c1ccc2[nH]c(-c3cc(NC(=O)CNC(=N)N)cn3C)nc2c1 [Compound 1024, 1H-2-[1-Methyl-4-(guanidinoacetylamino)pyrrol-2-yl]benzimidazole-5-[N-[2-methyl-4-[N,N-bis(2-chloroethyl)amino]phenyl]]carboxamide dihydrochloride]",50% Inhibition,mouse B16 melanoma cells,0.586 µg/mL
same,T/C,[2]; 10 mg/Kg,61%
"CN(C)CCCC(=O)Nc1cc(-c2nc3cc(C(=O)Nc4ccc(N(CCCl)CCCl)cc4)ccc3[nH]2)n(C)c1 [Compound 1256, 1H-2-[1-Methyl-4-[4-(N,N-dimethylamino)butyrylamino]pyrrol-2-yl]benzimidazole-5-[N-[4-[N,N-bis-(2-chloroethyl)amino]phenyl]]carboxamide hydrochloride]",50% Inhibition,mouse B16 melanoma cells,4.67 µg/mL
same,T/C,[2]; 15 mg/Kg,60%
"Cn1cc(NC(=O)c2cc(NC(=O)c3cc(NC=O)cn3C)cn2C)cc1C(=O)NCCC(=N)N [Distamycin, distamycin, reference compound]",ΔTm,[1],10 °C
same,IC50,mouse B16 melanoma cells,36 mg/L
